# Patent publication US7250442B2, “Dihydroindol-2-one derivatives as steroid hormone nuclear receptor modulators” (Eli Lilly and Company, priority 2003, dated 2007)
# Molecular target: T1, human MR (Homo sapiens, UniProt P08235)
# T1 construct: The full length human MR gene is cloned from a human kidney or human brain cDNA library; made in house; host or cells: Sf9 insect cells (baculovirus, pAcHLT transfer vector)
# T1 sequence (P08235 1-984): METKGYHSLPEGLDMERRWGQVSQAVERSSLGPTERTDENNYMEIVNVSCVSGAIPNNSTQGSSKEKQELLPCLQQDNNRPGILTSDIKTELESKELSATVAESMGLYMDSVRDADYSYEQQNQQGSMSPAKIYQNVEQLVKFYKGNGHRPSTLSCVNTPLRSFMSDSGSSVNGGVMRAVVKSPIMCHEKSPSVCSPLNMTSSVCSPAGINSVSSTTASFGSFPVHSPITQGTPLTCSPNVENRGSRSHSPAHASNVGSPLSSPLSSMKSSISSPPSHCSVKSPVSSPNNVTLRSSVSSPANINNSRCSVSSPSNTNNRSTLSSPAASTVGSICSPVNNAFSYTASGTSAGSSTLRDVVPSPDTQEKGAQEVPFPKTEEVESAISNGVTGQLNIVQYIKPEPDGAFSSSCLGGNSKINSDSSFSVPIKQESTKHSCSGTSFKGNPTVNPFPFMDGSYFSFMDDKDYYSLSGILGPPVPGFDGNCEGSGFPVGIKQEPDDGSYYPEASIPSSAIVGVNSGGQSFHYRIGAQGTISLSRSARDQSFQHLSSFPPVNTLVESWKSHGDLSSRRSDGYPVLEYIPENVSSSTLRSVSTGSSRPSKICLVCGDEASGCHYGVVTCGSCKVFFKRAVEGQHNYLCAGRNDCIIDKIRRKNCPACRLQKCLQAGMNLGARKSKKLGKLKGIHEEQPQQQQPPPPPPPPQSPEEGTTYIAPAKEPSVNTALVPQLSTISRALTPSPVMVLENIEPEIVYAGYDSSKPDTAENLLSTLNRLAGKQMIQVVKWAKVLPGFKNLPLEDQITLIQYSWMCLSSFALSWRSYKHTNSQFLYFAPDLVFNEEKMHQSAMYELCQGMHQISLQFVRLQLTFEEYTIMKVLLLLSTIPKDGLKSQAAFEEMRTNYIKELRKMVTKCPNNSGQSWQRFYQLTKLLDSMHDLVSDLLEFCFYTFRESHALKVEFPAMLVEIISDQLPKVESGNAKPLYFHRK
# Assay: Mineralocorticoid Receptor Binding Assay ([3H]-aldosterone displacement)
# Details: full length human MR expressed in Sf9 cells, 0.5 nM [3H]-aldosterone
# Protocol: Mineralocorticoid Receptor Binding Assay:
# The full length human MR gene is cloned from a human kidney or human brain cDNA library. Briefly, using synthetic oligonucleotide primers (Eli Lilly and Company, Indianapolis) directed to nucleotides 20-54 and 3700-3666 of the human MR, polymerase chain reaction (PCR) is performed under standard conditions using a human cDNA library. The PCR reaction is performed in a final volume of 50 μl containing about 1 μl of a 50× stock solution of polymerase; about 1 μl of a 50× stock solution of dNTP; about 5 μl of an appropriate PCR buffer; about 1 μl of each primer; about 5 μl of a H. kidney or H. brain cDNA library; and about 36 μl of water. The reaction is allowed to denature for about 30 seconds at 95 degrees Celsius, anneal for about 30 seconds at 55 degrees Celsius, and extend for about 5 minutes at 72 degrees Celsius, the sequence being repeated for a total of about 35 cycles. The desired PCR product (3.68 Kb) is confirmed by gel electrophoresis and subsequently cut from the gel and stored at about −20 degrees Celsius until extraction. To extract the cDNA product from the agarose gel, the QIAEX II Gel Extraction protocol (QIAGEN, Inc.) is employed according to the manufacturer's instructions. Following extraction, the MR cDNA is cloned into an appropriate cloning vector (Zero Blunt TOPO PCR Cloning Kit (Invitrogen, Inc.) and a pAcHLT-baculovirus transfer vector (B.D./Pharminogen), then expressed in SF9 insect cells, essentially according to manufacturer's instructions. Sf9 cells are grown at a scale where gram quantity cell pellets are obtained for subsequent use in the MR binding assay. Harvested cell pellets are lysed by repeated freeze-thaw cycles (about 4) in a suitable lysis buffer then centrifuged at about 1×10^3 G (with the supernatant being saved for future assays).
# MR binding assays are performed in a final total volume of about 250 μl containing about 20-25 μg of protein and 0.5 nM of [^3H]-aldosterone plus varying concentrations of test compound or vehicle. The assay binding buffer consists of 30 mM sodium molybdate, 30 mM of TRIS-HCl, 5 mM sodium phosphate, 5 mM sodium pyrophosphate, and about 10% glycerol, pH=7.5.
# Briefly, assays are prepared at RT in 96-well Falcon 3072 plates, each well containing 210 μl of binding buffer, 10 μl of [^3H]-aldosterone, 10 μl of test compound/vehicle, and 20 μl of the resuspended receptor protein extract. Incubations are carried out at 4 degrees Celsius with shaking for about 16 hours. 200 μl aliquots of each incubation are filtered onto Millipore HA 0.45 micron 96-well filter plates, pre-moistened with cold 30 mM TRIS-HCl. The filter plates are suctioned dry with vacuum and immediately washed 3× with cold 30 mM TRIS-HCl. The plates are then punched out and the amount of receptor-ligand complex is determined by liquid scintillation counting using 4 ml of Ready Protein Plus™ liquid scintillation cocktail.
# IC50 values (defined as the concentration of test compound required to decrease [^3H]-aldosterone binding by 50%) are then determined. Ki values for each respective test compound can then be calculated by application of the Cheng-Prusoff equation as described in Cheng et al., Relationship Between The Inhibition Constant (Ki) and The Concentration of Inhibitor Which Causes 50% Inhibition (IC50) of an Enzymatic Reaction, Biochem. Pharmacol., 22: 3099-31088; (1973).
row,SMILES,Ki [nM]
1,"COc1ccc(CN2C(=O)C(c3cc(C)c(O)c(C)c3)(c3cc(C)c(O)c(C)c3)c3ccccc32)cc1 [Example 1, 3,3-Bis-(4-hydroxy-3,5-dimethyl-phenyl)-1-(4-methoxy-benzyl)-1,3-dihydro-indol-2-one]",≤ 500
2,"COC(=O)c1ccc(CN2C(=O)C(c3cc(C)c(O)c(C)c3)(c3cc(C)c(O)c(C)c3)c3ccccc32)cc1 [Example 3, 4-[3,3-Bis-(4-hydroxy-3,5-dimethyl-phenyl)-2-oxo-2,3-dihydro-indol-1-ylmethyl]-benzoic acid methyl ester]",≤ 500
3,"Cc1cc(C2(c3cc(C)c(O)c(C)c3)C(=O)N(C)c3ccccc32)cc(C)c1O [Example 4, 3,3-Bis-(4-hydroxy-3,5-dimethyl-phenyl)-1-methyl-1,3-dihydro-indol-2-one]",≤ 1000
4,"CCCN1C(=O)C(c2cc(C)c(O)c(C)c2)(c2cc(C)c(O)c(C)c2)c2ccccc21 [Example 5, 3,3-Bis-(4-hydroxy-3,5-dimethyl-phenyl)-1-propyl-1,3-dihydro-indol-2-one]",≤ 500
5,"Cc1cc(C2(c3cc(C)c(O)c(C)c3)C(=O)N(CC3CCCCC3)c3ccccc32)cc(C)c1O [Example 6, 1-Cyclohexylmethyl-3,3-bis-(4-hydroxy-3,5-dimethyl-phenyl)-1,3-dihydro-indol-2-one]",≤ 500
6,"Cc1cc(C2(c3cc(C)c(O)c(C)c3)C(=O)N(Cc3cccc(OC(F)(F)F)c3)c3ccccc32)cc(C)c1O [Example 8, 3,3-Bis-(4-hydroxy-3,5-dimethyl-phenyl)-1-(3-trifluoromethoxy-benzyl)-1,3-dihydro-indol-2-one]",≤ 500
7,"Cc1cc(C2(c3cc(C)c(O)c(C)c3)C(=O)N(Cc3c(C)noc3C)c3ccccc32)cc(C)c1O [Example 9, 1-(3,5-Dimethyl-isoxazol-4-ylmethyl)-3,3-bis-(4-hydroxy-3,5-dimethyl-phenyl)-1,3-dihydro-indol-2-one]",≤ 500
8,"Cc1cc(C2(c3ccc(O)c(C)c3)C(=O)N(Cc3ccccc3)c3ccccc32)ccc1O [Example 12, 1-Benzyl-3,3-bis-(4-hydroxy-3-methyl-phenyl)-1,3-dihydro-indol-2-one]",≤ 500
9,"O=C1N(Cc2ccccc2)c2ccccc2C1(c1cc(Cl)c(O)c(Cl)c1)c1cc(Cl)c(O)c(Cl)c1 [Example 14, 1-Benzyl-3,3-bis-(3,5-dichloro-4-hydroxy-phenyl)-1,3-dihydro-indol-2-one]",≤ 1000
10,"Cc1cc(C2(c3cc(C)c(O)c(C)c3)C(=O)N(Cc3ccccc3)c3ccc(Br)cc32)cc(C)c1O [Example 15, 1-Benzyl-5-bromo-3,3-bis-(4-hydroxy-3,5-dimethyl-phenyl)-1,3-dihydro-indol-2-one]",≤ 500
11,"Cc1ccc2c(c1)C(c1cc(C)c(O)c(C)c1)(c1cc(C)c(O)c(C)c1)C(=O)N2Cc1ccccc1C#N [Example 23, 2-[3,3-Bis-(4-hydroxy-3,5-dimethyl-phenyl)-5-methyl-2-oxo-2,3-dihydro-indol-1-ylmethyl]-benzonitrile]",≤ 500
12,"Cc1cc(C2(c3ccc(O)cc3)C(=O)N(Cc3ccccc3Cl)c3ccccc32)cc(C)c1O (centres unmarked) [Example 36, 1-(2-Chloro-benzyl)-3-(4-hydroxy-3,5-dimethyl-phenyl)-3-(4-hydroxy-phenyl)-1,3-dihydro-indol-2-one]",≤ 500

# The next lines start with the values.
row,Ki [nM],SMILES
1,≤ 500,"Cc1cc(C2(c3cc(C)c(O)c(C)c3)C(=O)N(Cc3ccccc3Cl)c3ccccc32)cc(C)c1O [Example 11, 1-(2-Chloro-benzyl)-3,3-bis-(4-hydroxy-3,5-dimethyl-phenyl)-1,3-dihydro-indol-2-one]"
2,≤ 500,"Cc1ccc2c(c1)C(c1cc(C)c(O)c(C)c1)(c1cc(C)c(O)c(C)c1)C(=O)N2Cc1ccccc1 [Example 17, 1-Benzyl-3,3-bis-(4-hydroxy-3,5-dimethyl-phenyl)-5-methyl-1,3-dihydro-indol-2-one]"
3,≤ 500,"Cc1cc(C2(c3cc(C)c(O)c(C)c3)C(=O)N(Cc3ccccc3Cl)c3ccc(Br)cc32)cc(C)c1O [Example 19, 5-Bromo-1-(2-chloro-benzyl)-3,3-bis-(4-hydroxy-3,5-dimethyl-phenyl)-1,3-dihydro-indol-2-one]"
4,≤ 500,"Cc1ccccc1CN1C(=O)C(c2cc(C)c(O)c(C)c2)(c2cc(C)c(O)c(C)c2)c2cc(Br)ccc21 [Example 20, 5-Bromo-3,3-bis-(4-hydroxy-3,5-dimethyl-phenyl)-1-(2-methyl-benzyl)-1,3-dihydro-indol-2-one]"
5,≤ 500,"Cc1ccc2c(c1)C(c1cc(C)c(O)c(C)c1)(c1cc(C)c(O)c(C)c1)C(=O)N2Cc1ccccc1C [Example 21, 3,3-Bis-(4-hydroxy-3,5-dimethyl-phenyl)-5-methyl-1-(2-methyl-benzyl)-1,3-dihydro-indol-2-one]"
6,≤ 500,"Cc1ccc2c(c1)C(c1cc(C)c(O)c(C)c1)(c1cc(C)c(O)c(C)c1)C(=O)N2Cc1ccccc1Cl [Example 22, 1-(2-Chloro-benzyl)-3,3-bis-(4-hydroxy-3,5-dimethyl-phenyl)-5-methyl-1,3-dihydro-indol-2-one]"
7,≤ 500,"Cc1cc(C2(c3cc(C)c(O)c(C)c3)C(=O)N(Cc3ccccc3Cl)c3c(C)cccc32)cc(C)c1O [Example 24, 1-(2-Chloro-benzyl)-3,3-bis-(4-hydroxy-3,5-dimethyl-phenyl)-7-methyl-1,3-dihydro-indol-2-one]"
8,≤ 500,"CCc1cccc2c1N(Cc1ccccc1Cl)C(=O)C2(c1cc(C)c(O)c(C)c1)c1cc(C)c(O)c(C)c1 [Example 25, 1-(2-Chloro-benzyl)-7-ethyl-3,3-bis-(4-hydroxy-3,5-dimethyl-phenyl)-1,3-dihydro-indol-2-one]"
9,≤ 500,"Cc1cc(C2(c3cc(C)c(O)c(C)c3)C(=O)N(Cc3ccccc3Cl)c3cccc(Cl)c32)cc(C)c1O [Example 26, 4-Chloro-1-(2-chloro-benzyl)-3,3-bis-(4-hydroxy-3,5-dimethyl-phenyl)-1,3-dihydro-indol-2-one]"
10,≤ 500,"Cc1cc(C2(c3cc(C)c(O)c(C)c3)C(=O)N(Cc3ccccc3Cl)c3ccccc32)cc(C)c1N (centres unmarked) [Example 35, 3-(4-Amino-3,5-dimethyl-phenyl)-1-(2-chloro-benzyl)-3-(4-hydroxy-3,5-dimethyl-phenyl)-1,3-dihydro-indol-2-one]"
11,≤ 500,"Cc1cc(C2(c3cc(C)c(O)c(C)c3)C(=O)N(Cc3ccc(F)cc3F)c3ccccc32)cc(C)c1O [Example 43, 1-(2,4-Difluoro-benzyl)-3,3-bis-(4-hydroxy-3,5-dimethyl-phenyl)-1,3-dihydro-indol-2-one]"
